These compounds were tested against T1, human GPR68 (Homo sapiens, UniProt Q15743) (assay: GPR68 Biochemical Assay (Promega GloSensor cAMP assay, GPR68 antagonism)). Settings: HEK293T cells transiently expressing hGPR68, antagonism of pH 5.5 stimulated cAMP, 15 min, read-out: hGPR68 IC50.
T1 construct: encoding full-length human GPR68 (uniprot ID: Q15743); expressed in transfected cells; host or cells: HEK293T
T1 sequence (Q15743 whole entry): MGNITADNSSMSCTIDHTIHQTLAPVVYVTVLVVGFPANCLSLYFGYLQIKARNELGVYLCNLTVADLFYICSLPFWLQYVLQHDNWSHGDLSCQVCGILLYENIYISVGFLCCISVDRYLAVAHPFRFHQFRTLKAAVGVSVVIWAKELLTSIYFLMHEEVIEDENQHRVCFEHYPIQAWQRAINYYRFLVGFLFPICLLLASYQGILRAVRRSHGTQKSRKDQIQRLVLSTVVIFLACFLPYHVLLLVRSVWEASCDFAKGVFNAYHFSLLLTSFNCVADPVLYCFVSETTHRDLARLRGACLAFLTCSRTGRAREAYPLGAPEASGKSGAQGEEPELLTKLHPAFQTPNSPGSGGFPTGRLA
Type: cell-based
Outline: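 HEK293T cells transiently co-transfected with full-length human GPR68 and GloSensor plasmids, preloaded 60 min with GloSensor substrate in pH 8.0 buffer. Compounds (9-point half-log series, top 50 μM final, 0.5% DMSO) added with pH 5.5 buffer (~EC80-90 stimulation); luminescence read after 15 min at room temperature. IC50 from sigmoidal fit of % inhibition.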
`NC(=O)c1c(CO)nn2c(C(=O)NC3CC(F)(F)C3)ccnc12` [Compound 207, N7-(3,3-difluorocyclobutyl)-2-(hydroxymethyl)pyrazolo[1,5-a]pyrimidine-3,7-dicarboxamide] was tested, and the IC50 was 0.5 to 5 µM.
`COCc1nc2c(C(=O)NCc3ccc(F)cc3)ccnn2c1C(N)=O` [Compound 110, N8-[(4-fluorophenyl)methyl]-2-(methoxymethyl)imidazo[1,2-b]pyridazine-3,8-dicarboxamide] showed an IC50 of under 0.05 µM.
`NC(=O)c1c(-c2ncco2)nn2c(C(=O)NC3CC(F)(F)C3)ccnc12` [Compound 25, N7-(3,3-difluorocyclobutyl)-2-oxazol-2-yl-pyrazolo[1,5-a]pyrimidine-3,7-dicarboxamide] was tested, and the IC50 was 0.5 to 5 µM.
With `COCc1nn2c(C(=O)NC3CCc4cncn4C3)ccnc2c1C(N)=O` (stereo not shown) [Compound 188, 2-(methoxymethyl)-N7-(5,6,7,8-tetrahydroimidazo[1,5-a]pyridin-6-yl)pyrazolo[1,5-a]pyrimidine-3,7-dicarboxamide] the IC50 was 0.5 to 5 µM.
`COCc1nn2c(C(=O)NC3COc4ccccc4C3)ccnc2c1C(N)=O` (stereo not shown) [Compound 78, N7-chroman-3-yl-2-(methoxymethyl)pyrazolo[1,5-a]pyrimidine-3,7-dicarboxamide] gave an IC50 of 0.05 to 0.5 µM.
`CCC(CNC(=O)c1ccnc2c(C(N)=O)cnn12)Oc1cccc(C)c1` (stereo not shown) [Compound 96, N7-[2-(3-methylphenoxy)butyl]pyrazolo[1,5-a]pyrimidine-3,7-dicarboxamide] was tested, and the IC50 was 5 to 50 µM.
`COCc1nn2c(C(=O)NC3Cc4nccn4C3)ccnc2c1C(N)=O` (stereo not shown) [Compound 165, N7-(6,7-dihydro-5H-pyrrolo[1,2-a]imidazol-6-yl)-2-(methoxymethyl)pyrazolo[1,5-a]pyrimidine-3,7-dicarboxamide] was tested, and the IC50 was 0.05 to 0.5 µM.
`N#Cc1nn2c(C(=O)NC3Cc4ccccc4C3)ccnc2c1C(N)=O` [Compound 21, 2-cyano-N7-indan-2-yl-pyrazolo[1,5-a]pyrimidine-3,7-dicarboxamide] was tested, and the IC50 was 0.05 to 0.5 µM.
For `COCc1nn2c(C(=O)N[C@H]3COc4c3ccc(F)c4F)ccnc2c1C(N)=O` [Compound 119, 2-(methoxymethyl)-N7-[(3R)-6,7-difluoro-2,3-dihydrobenzofuran-3-yl]pyrazolo[1,5-a]pyrimidine-3,7-dicarboxamide], the IC50 was under 0.05 µM.
`COCc1nn2c(C(=O)NC3Cc4ccccc43)ccnc2c1C(N)=O` (stereo not shown) [Compound 88, N7-(7-bicyclo[4.2.0]octa-1,3,5-trienyl)-2-(methoxymethyl)pyrazolo[1,5-a]pyrimidine-3,7-dicarboxamide] gave an IC50 of under 0.05 µM.
`COCc1nn2c(C(=O)NC3CC(F)(F)c4ccccc43)ccnc2c1C(N)=O` (single isomer, unassigned) [Compound 173, N7-(3,3-difluoroindan-1-yl)-2-(methoxymethyl)pyrazolo[1,5-a]pyrimidine-3,7-dicarboxamide] showed an IC50 of under 0.05 µM.
`C[C@]1(O)C[C@@H](NC(=O)c2ccnc3c(C(N)=O)cnn23)C1` [Compound 8, N7-(cis-3-hydroxy-3-methyl-cyclobutyl)pyrazolo[1,5-a]pyrimidine-3,7-dicarboxamide] showed an IC50 of 5 to 50 µM.
In the case of `COCc1nn2c(C(=O)NC3Cc4ccccc4C3)ccnc2c1C(N)=O` [Compound 57, N7-indan-2-yl-2-(methoxymethyl)pyrazolo[1,5-a]pyrimidine-3,7-dicarboxamide], the IC50 is reported as under 0.05 µM.
`COCc1nn2c(C(=O)NC3Cc4ccccc4C3)cc(C)nc2c1C(N)=O` [Compound 227, N7-indan-2-yl-2-(methoxymethyl)-5-methyl-pyrazolo[1,5-a]pyrimidine-3,7-dicarboxamide] showed an IC50 of under 0.05 µM.
Work on `CNC(=O)c1c(COC)nn2c(C(=O)N[C@H]3C[C@@H](OC(F)(F)F)C3)ccnc12` [Compound 161, 2-(methoxymethyl)-N3-methyl-N7-[cis-3-(trifluoromethoxy)cyclobutyl]pyrazolo[1,5-a]pyrimidine-3,7-dicarboxamide] yielded an IC50 of 0.5 to 5 µM.
Compound `COCc1nc2c(C(=O)NC3CS(=O)(=O)c4ccccc43)ccnn2c1C(N)=O` (stereo not shown) [Compound 223, N8-(1,1-dioxo-2,3-dihydrobenzothiophen-3-yl)-2-(methoxymethyl)imidazo[1,2-b]pyridazine-3,8-dicarboxamide] has an IC50 of under 0.05 µM.

Reference: patent US20260308159A1, “BICYCLIC HETEROARYLAMIDES HAVING GPR68 MODULATING ACTIVITY” (RECURSION PHARMACEUTICALS, INC., priority 2023, published 2026)
